From ChEMBL document CHEMBL1201862, “PubChem BioAssay data set” (2004)
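Compound exposure: 48 hours, 5 concentrations, 96-well plates. Abbreviation: GI50, concentration required for 50% inhibition of growth.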 Calls of active or inactive are those of the source. Cut-off read from the data, not from the text of the source: active = GI50 up to about 1.1 µM and inactive = higher.

How the values were obtained:
Test in all cases: inhibition of tumour cell growth, NCI panel, 48 h
CAKI-1 = test system: CAKI-1
OVCAR-5 = test system: OVCAR-5
Malme-3M = test system: Malme-3M
SN12C = test system: SN12C
T47D = test system: T47D
OVCAR-8 = test system: OVCAR-8
SNB-75 = test system: SNB-75
SK-MEL-2 = test system: SK-MEL-2
MDA-N = test system: MDA-N
HL-60 = test system: HL-60
TK-10 = test system: TK-10
OVCAR-3 = test system: OVCAR-3
ACHN = test system: ACHN
A549 = test system: A549
SNB-19 = test system: SNB-19
SF-268 = test system: SF-268
MDA-MB-435 = test system: MDA-MB-435
NCI-H23 = test system: NCI-H23
NCI-H226 = test system: NCI-H226
SF-295 = test system: SF-295

Measured: GI50

NCS(=O)(=O)O
inactive: CAKI-1 > 100 µM | OVCAR-5 > 100 µM | Malme-3M > 100 µM | SN12C > 100 µM | T47D > 100 µM | OVCAR-8 > 100 µM | SNB-75 > 100 µM | SK-MEL-2 > 100 µM | MDA-N > 100 µM | HL-60 > 100 µM | TK-10 > 100 µM | OVCAR-3 > 100 µM | ACHN > 100 µM | A549 > 100 µM | SNB-19 > 100 µM | SF-268 > 100 µM | MDA-MB-435 > 100 µM | NCI-H23 > 100 µM | NCI-H226 > 100 µM | SF-295 > 100 µM

COc1cc(-c2cc(=O)c3c(OC)c(OC)c(OC)c(OC)c3o2)cc(OC)c1OC [HEPATAMETHOXYFLAVONE]
inactive: CAKI-1 21.6 µM | OVCAR-5 > 100 µM | Malme-3M 39.6 µM | SN12C 43.6 µM | T47D 12.7 µM | OVCAR-8 24.5 µM | SNB-75 26.4 µM | SK-MEL-2 27.9 µM | MDA-N 42.7 µM | HL-60 15 µM | TK-10 44.4 µM | OVCAR-3 25.5 µM | ACHN 21.9 µM | A549 35.5 µM | SNB-19 76.6 µM | SF-268 32.9 µM | MDA-MB-435 29 µM | NCI-H23 41.8 µM | NCI-H226 44.8 µM | SF-295 28.1 µM
